From patent US20140106380A1, “METHODS FOR IDENTIFYING INHIBITORS OF ABETA42 OLIGOMERS” (Merck Sharp & Dohme Crop., priority 2010, published 2014)

What was measured:
Assay type in all cases: biochemical
[1] = biological target: T1, Aβ42 (Homo sapiens, UniProt P05067); assay: Dynamic light scattering of Aβ42 oligomerization; conditions: Aβ42 40 μM, 25 °C, in the presence of SI
T1 construct: Synthetic human Aβ1-42, purchased from American Peptide Company (Sunnyvale, Calif.); purchased American Peptide Company (Sunnyvale, Calif.); host or cells: chemically synthesised peptide
T1 sequence (P05067 672-713 limits assumed): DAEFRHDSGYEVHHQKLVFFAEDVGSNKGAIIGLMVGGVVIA
Method: Dynamic light scattering (DLS), also known as also known as quasi-elastic laser light scattering, offered another methodology to determine Aβ42 oligomerization by measuring the size distribution profile and shape of particles in solution. […] Sample preparation for the DLS assay was performed in a bio-safety cabinet. All solutions and reagents were pre-filtered with a 0.1 μm Whatman filter (Whatman, Piscataway, N.J.). Aβ42 (100 μM) made in PBS from the 1 mM DMSO stock (Example 1) was filtered with a 0.2 μm filter (Whatman, Piscataway, N.J.) and diluted to 50 μM to 10 μM with PBS or water. The samples were added to the DLS plate (50 μl/well) in the presence or absence of compounds and incubated at room temperature for seven to eight hours. The plate was briefly centrifuged (1 minute at 3000 rpm) and placed in the DynaPro DLS plate reader (Wyatt Technology, Dernbach, Germany), in which different parameters (normalized intensity, hydrodynamic radius, molecular weight, relative molecular mass, percent polydispersity, and sum of square) of the Aβ42 oligomer samples were measured, and analyzed with Dynamics 7.0.0 software (Wyatt Technology, Dernbach, Germany).

[2] = biological target: T1, Aβ42; assay: Aβ42 CT AlphaLISA, inhibition of early oligomerization; conditions: for Aβ42 CT immunoreactivity: Aβ42 1 nM, oligomerization at 4° C. overnight, different buffers, AlphaLISA
Method: To test a compound's effect on inhibition of early oligomerization, SI, or a different testing compound, was mixed with the Aβ42 solution to make solutions with final concentrations of SI from 0.1 μM to 10 mM (0.1 μM, 1 μM, 10 μM, 100 μM, 1 mM, and 10 mM) and Aβ42 from 1 nM to 10 μM (1 nM, 10 nM, 100 nM, 1 μM and 10 μM). For example, a 10 μM Aβ42 solution contained, respectively, 0 μM, 0.1 μM, 1 μM, 10 μM, 100 μM, 1 mM and 10 mM SI. The same SI concentration series was applied to other concentrations of the Aβ42 solution indicated above. The mixtures were either incubated at 4° C. overnight or room temperature for two to three hours, before being used in the immunoreactive assay. Similarly, the presence of Aβ42 oligomers was detected using an Aβ42 C-terminal (CT) AlphaLISA assay (Eglen et al., 2008, Curr. Chem. Genomics, 1:2-10), a bead based proximity assay, based upon an oxygen channeling technology. The assay was carried out in a 384 well plate using an AlphaLISA® Human Amyloid β 1-[…]42 Research Immunoassay Kit (PerkinElmer, Waltham, Mass.) according to the manufacturer's directions. To make a 2.5× AlphaLISA acceptor bead and biotinylated anti-Aβ42 antibody mixture, 5.5 μl acceptor beads conjugated to anti-Aβ42 (12F4) and 5.5 μl biotin-Aβ42 antibody (binds to a epitope away from the CT of Aβ42) were added to 1,089 μl 1S AlphaLISA buffer and mixed by brief vortexing. To each well of a 384-well plate, 8 μl of the mix and 2 μl of an Aβ42 sample were added, followed by gentle tapping of the plate to mix the solutions. The plate was incubated at room temperature for one hour. The streptavidin donor bead solution was made in a dark room under safety light by mixing 20.1 μl of streptavidin donor beads with 1,279 μl 1× AlphaLISA buffer. The streptavidin donor bead solution, which binds to the biotinylated anti-Aβ42 antibody, was then added (10 μl/well) to the plate, sealed with an adhesive aluminum membrane, and incubated at room temperature for 30 minutes. Incubation brought the donor and acceptor beads into close proximity. An immunoreactive signal was generated when the donor bead released a singlet oxygen that, when excited at 680nm, was transferred to the acceptor bead, resulting in a light emission at 610 nm. The immunoreactive signals were read with a multilabel plate reader (EnVision®, PerkinElmer, Waltham, Mass.). The presence of Aβ42 oligomers was determined by a corresponding decrease in the C-terminal immunosignal. Values for the AlphaLISA assays were graphed and analyzed with Prism GraphPad software. Similar to signals generated with ELISA, the extent of Aβ42 oligomerization is inversely correlated with the magnitude of the CT immunosignal in AlphaLISA. Values for the ELISA assays were graphed and analyzed with Prism GraphPad software.

[3] = biological target: T2, Aβ42 oligomers (Homo sapiens, UniProt P05067); assay: Aβ42 CT immunoassay, metastability of pre-formed Aβ42 oligomers; conditions: addition to pre-formed Aβ42 oligomers, P<0.01 relative to samples without SI
T2 construct: Synthetic human Aβ1-42, purchased from American Peptide Company (Sunnyvale, Calif.); purchased American Peptide Company (Sunnyvale, Calif.); host or cells: chemically synthesised peptide
T2 sequence (P05067 672-713 limits assumed): as above
Method: The effect of an Aβ oligomer inhibitor on the metastability of Aβ42 oligomers prepared according Example 1 was evaluated as follows. […] Similarly, the presence of Aβ42 oligomers was detected using an Aβ42 C-terminal (CT) AlphaLISA assay (Eglen et al., 2008, Curr. Chem. Genomics, 1:2-10), a bead based proximity assay, based upon an oxygen channeling technology. […] The immunoreactive signals were read with a multilabel plate reader (EnVision®, PerkinElmer, Waltham, Mass.). The presence of Aβ42 oligomers was determined by a corresponding decrease in the C-terminal immunosignal. Values for the AlphaLISA assays were graphed and analyzed with Prism GraphPad software. […] Values for the ELISA assays were graphed and analyzed with Prism GraphPad software.

[4] = biological target: T2, Aβ42 oligomers; assay: Aβ42 NT immunoassay (6E10-6E10); conditions: P<0.01
Method: The effect of an Aβ oligomer inhibitor on the metastability of Aβ42 oligomers prepared according Example 1 was evaluated as follows. A sample of the 1 mM Aβ42 DMSO stock was diluted to 10 μM or 100 μM in PBS or Neurobasal (e.g., 10 μl of 1 mM Aβ42 DMSO stock to make 1 ml 10 μM solution or 100 μl A(342 DMSO stock to make 1 ml 100 μM solution). After incubation at 37° C., the diluted oligomer solutions were mixed with scyllo-inositol (SI), a naturally occurring plant sugar alcohol found most abundantly in the coconut palm, to make a final concentrations of 1 μM or 10 μM Aβ42 containing 10 mM SI. The non-compound control oligomer sample contained no SI. The mixtures were incubated on ice for two to three hours to allow establishment of new equilibrium (metastability) among Aβ42 species. The stabilized mixtures were then utilized in the immunoreactive assays. An Aβ42 N-terminal (NT) oligomer ELISA was performed by adopting a 6E10-6E10 ELISA originally developed in house at Merck and also reported by others (Gandy et al., 2010, Ann. Neurol. 68: 220-230; Xia et al., 2009, Arch. Neurol. 66:190-199). […] The immunoreactive signals were read with a multilabel plate reader (EnVision®, PerkinElmer, Waltham, Mass.). The presence of Aβ42 oligomers was determined by a corresponding increase in the NT immunosignal. Values for the ELISA assays were graphed and analyzed with Prism GraphPad software. […]

Molecule: O[C@H]1[C@H](O)[C@@H](O)[C@H](O)[C@@H](O)[C@@H]1O [SI, scyllo-inositol]
- % Intensity, Peak 1 [1]: 0.7%
- % Intensity, Peak 2 [1]: 96.88%
- % Mass, Peak 1 [1]: 76%
- % Mass, Peak 2 [1]: 38%
- MW-R, Peak 1 [1]: 11.6 kDa
- MW-R, Peak 2 [1]: 527.1 kDa
- Radius, Peak 1 [1]: 2.5 nm
- Radius, Peak 2 [1]: remained unchanged
- % Mass, Peak 1 ([1]; listed as Ab42/SI): 72.93%
- % Mass, Peak 2 ([1]; listed as Ab42/SI): 38.75%
- Radius, Peak 2 ([1]; listed as Ab42/SI): 21.4 nm
- Aβ42 CT immunoreactivity [2]: dose dependent increase
- CT immunoreactivity [3]: statistically significant increase
- NT immunoreactivity ([4]; addition to pre-formed Aβ42 oligomers): significant decrease

Molecule: O[C@H]1[C@H](O)[C@@H](O)[C@H](O)[C@@H](O)[C@H]1O [myo-inositol]
- Aβ42 CT immunoreactivity [2]: no effect

Molecule: OC1C(O)C(O)C(O)C(O)C1O (stereo not drawn) [chiro-inositol]
- Aβ42 CT immunoreactivity [2]: no effect

Molecule: Ac-Leu-Pro(N-CH3)Phe-Phe-Asp-NH2 [Peptide IV]
- CT immunoreactivity ([2]; FIG. 7A): dose-depended increase
- NT immunosignal ([4]; FIG. 7B): significant decrease
